Reference: patent publication US7960549B2, “Solid forms of a chemokine receptor antagonist and methods of use thereof” (priority 2004, dated 2011)
Where a name gives a salt, the structure may show the parent alone.

Key:
Assay type in all cases: physicochemical
[1] = Differential scanning calorimetry (DSC)
Protocol: Differential scanning calorimetry (DSC) analyses are performed using a T.A Instruments Q1000 thermal analyser. Analyses are carried out using nitrogen purge gas flowing at an average rate of 50 ml/min. A mechanical compressor cools the system, and equilibrates the instruments being used at ambient temperature between analyses. […] Energy calibration is performed with a certified indium calibrator (melting enthalpy of 28.45 J/g), applying a heating rate of 5° C./min. The temperatures identified from DSC scans of a particular sample are accurate to within ±3° C. […] Modulated temperature differential scanning calorimetry (MTDSC) is also used since deconvolution of the total heat flow into reversing and non-reversing heat flows allows the transitions to be easily identified. The samples were submitted to the same experimental temperature program: after the equilibration of the sample at −5° C., the samples were heated through a modulated program from −5° C. to 210° C. at a rate of 1° C./min. […] Experiments are performed using crimped aluminium sample pans or open pans in some cases. The quantity of product analysed is typically between 2 and 13 mg.

[2] = Water sorption/desorption cycling (dynamic vapor sorption, DVS) at 25° C., with XRPD before and after; settings: for XRPD before and after water sorption/desorption cycling: four consecutive cycles, start at 40%, cycled between 100% and 0% relative humidity, mixed samples; for global / net weight loss after all 4 water sorption/desorption cycles: four cycles between 100% and 0% relative humidity
Protocol: Water sorption measurements are performed on a DVS-1 automated gravimetric vapor sorption analyser (Surface Measurement Systems Ltd., London, UK). The DVS-1 measures the uptake and loss of vapor gravimetrically using a Cahn D200 recording ultra-microbalance with a mass resolution of ±0.1 μg. The relative humidity around the sample is controlled by mixing saturated and dry carrier gas streams using mass flow controllers. The temperature is maintained within ±0.1° C. by enclosing the entire system in a temperature-controlled incubator. A sample size between 15 and 20 mg is used. In general, the error in % (w/w) identified in a tested sample is ±0.1% (w/w).
Two protocols are utilized to operate the DVS. In one protocol, a sample is dried at 0% relative humidity (RH) to remove any surface water present and establish a dry, baseline mass. Next, the sample is exposed to the following relative humidity profile: 0%, 10%, 20%, 30%, 40%, 50%, 60%, 70%, 80%, 90%, 80%, 70%, 60%, 50%, 40%, 30%, 20%, 10%, 0%. In some instances, this profile is repeated, yielding 4 sets of data going up and down in RH. In another protocol, the sample is first equilibrated at 40% RH, then it was exposed to the following relative humidity profile: 40%, 50%, 60%, 70%, 80%, 90%, 100%, 90%, 80%, 70%, 60%, 50% 40% 30%, 20% 10%, 0%, 10%, 20%, 30%, 40%. […] If equilibrium state is not reached, the change in relative humidity took place automatically after 360 or 600 minutes. From the complete moisture sorption and desorption profile, an isotherm is calculated using the DVS Advanced Analysis Suite v3.6. All experiments were performed at 25° C.

[3] = Controlled temperature (isothermal) X-ray powder diffraction: thermal stability of the crystalline form; settings: dry nitrogen; for form conversion as the temperature is raised (isothermal XRPD): ambient to 210° C.; for loss of stability (lines unique to the form disappear), isothermal XRPD: sample containing Forms E, F, and G, steps of 10° C.
Protocol: X-ray powder diffraction (XRPD) is performed on various samples of the Citrate Salt using one of three instruments. XRPD measurements with Instrument 1 utilize a Siemens-Bruker D5000 Matic powder diffractometer with a Bragg-Brentano (vertical θ-2θ configuration) parafocusing geometry. X-rays are produced from a sealed cobalt anode running at 40 kV and 30 mA. Two lines are typically emitted: CoKα1 (λ=1.7890 Å) and CoKα2 (λ=1.7929 Å). An iron β-filter limits the CoKβ (λ=1.6208 Å) radiation to about 1% of the diffracted beam at the detector. The primary beam passes through a parallel plate collimator (0.2 mm Soller slits), then through a divergence slit (0.2 mm). Diffracted X-rays are detected with a Braun 50 M multichannel linear detector having a 10°-wide detection window in angle 2θ. Scans are performed from 1.5° to 50.0° in 2θ, the scan time being 10 to 40 seconds per degree in 2θ. The error in the 2θ locations are typically within ±0.10 degrees.
In Instrument 3, XRPD measurements are performed at different temperatures to elucidate the evolution of crystal structure with temperature. Tests are carried out with a Siemens-Bruker D5000 diffractometer equipped with the Bragg Brentano parafocusing (θ-θ) geometry and an Anton-Paar TTK temperature chamber. Measurements utilize dry nitrogen or nitrogen streams having a particular humidity. The instrument specifications are substantially similar to the Siemens-Bruker D5000 Matic instrument described above (Instrument 1). Temperature is allowed to rise at a rate of 0.05° C./sec. Scans are recorded under the following conditions: a 1.5 to 50.0 degree scan in angle 2θ, 10 to 20 seconds counting time per degree in 2θ. Data are acquired in isotherm mode when the requested temperature is reached.

[4] = Thermal gravimetric analysis (TGA)
Protocol: Measurements utilizing thermal gravimetric analysis (TGA) are carried out on a T.A. instruments TGAQ500 analyzer. Mass calibration is performed with 10 and 100 mg certified masses. Temperature calibration is performed with Alumel® and nickel standards (Curie points of respectively 154° C. and 354° C.). Samples are exposed to a constant nitrogen stream of 60 ml/min, and temperature ranges from room temperature to 350° C. at a 5° C./min rate. The quantity of product tested is between 2 and 13 mg. The sample is deposited in an open aluminum sample pan, which is itself placed in a platinum pan. The temperatures identified from TGA scans of a particular sample are accurate to within ±3° C. Simultaneous TGA and DSC measurements are carried out using a […] thermal analysis system produced by the […] corporation. A liquid nitrogen cooling system makes it possible to work at temperatures below 20° C. The emitted gases, upon sample heating, are carried by a transfer capillary tube to a Pfeiffer mass spectrometer, the capillary tube heated to 150° C. The mass spectrometer can analyze molecular fragments at <<m/e>> ratios between 1 and 200 uma. A sample with a mass between 1 and 27 mg is contained in an open concave aluminum sample pan (75 μL capacity) exposed to a nitrogen stream. The sample is heated at a rate of 1 or 5° C./min.

[5] = mixture of Forms A and D, 0.3° C./min, Form D: conversion to Form A, Form A: melting/decomposition
[6] = transition 3411 (first endothermic transition, conversion of Form E to Form B), heating rate 5° C./min
[7] = transition 3412 (second endothermic transition, conversion of Form F to Form B), heating rate 5° C./min
[8] = transition 3413 (third endothermic transition, conversion of Form G to Form B), heating rate 5° C./min
[9] = transition 3414 (fourth endothermic transition, decomposition/melting of crystalline Form B), heating rate 5° C./min
[10] = weight transition 2811 (conversion away from Form E), 5° C./min
[11] = weight transition 2812 (conversion away from Form F), 5° C./min
[12] = weight transition 2813 (conversion away from Form G), 5° C./min
[13] = weight transition 2814 (decomposition/melting of crystalline Form B, loss of citrate), 5° C./min
[14] = 25° C., listed as Forms E, F, and G
[15] = heating rate 5° C./min, A, B, H: melting/decomposition, E: loss of water and conversion to Form H, ±3° C.
[16] = heating rate 5° C./min, sample of the single form (Form H formed from Form E sample), ±3° C.
[17] = mixture of Forms A and D, 0.3° C./min
[18] = sample containing Forms A and D, 5° C./min

## CC(C)(O)c1ccc2c(c1)/C(=C/CCN1CC[C@](O)(c3ccc(Cl)cc3)C(C)(C)C1)c1cccnc1CO2 [Form D, citrate salt of (S)-4-(4-Chloro-phenyl)-1-{3-[7-(1-hydroxy-1-methyl-ethyl)-11H-10-oxa-1-aza-dibenzo[a,d]cyclohepten-5-ylidene]-propyl}-3,3-dimethyl-piperidin-4-ol]
[1]; [5]
  DSC endothermic transition, Tmax: 52 °C
  DSC endothermic transition, interpolated beginning temperature: about 47 °C
[1]; mixture of Forms A and D, 0.3° C./min, conversion of Form D to Form A
  DSC endothermic transition, integrated enthalpy: 3.7 J/g
[2]; 25° C.
  XRPD before and after water sorption/desorption cycling: disappeared after the cycling; only the signature of Form A remains
[3]; sample containing Forms A and D
  transition to Form A observed by temperature controlled XRPD: below 60 °C

## CC(C)(O)c1ccc2c(c1)/C(=C/CCN1CC[C@](O)(c3ccc(Cl)cc3)C(C)(C)C1)c1cccnc1CO2 [Form E, F, and G]
[1]; [6]
  Integrated Enthalpy Change: 20.3 J/g
  Interpolated Starting T: 78 °C
  Tmax: 99 °C
[1]; [7]
  Integrated Enthalpy Change: 5.8 J/g
  Interpolated Starting T: 119 °C
  Tmax: 124 °C
[1]; [8]
  Integrated Enthalpy Change: 2.4 J/g
  Interpolated Starting T: 131 °C
  Tmax: 136 °C
[1]; [9]
  Interpolated Starting T: 165 °C
  Tmax: 181 °C
[4]; [10]
  Interpolated Starting T (° C.): 42 °C
  T (° C.) corresponding to Max. Rate of Weight Change: 50 °C
  Weight Loss % (w/w): 1.9 % (w/w)
[4]; [11]
  Interpolated Starting T (° C.): 110 °C
  T (° C.) corresponding to Max. Rate of Weight Change: 123 °C
  Weight Loss % (w/w): 3.6 % (w/w)
[4]; [12]
  Interpolated Starting T (° C.): 131 °C
  T (° C.) corresponding to Max. Rate of Weight Change: 138 °C
  Weight Loss % (w/w): 1.6 % (w/w)
[4]; [13]
  Interpolated Starting T (° C.): 166 °C
  T (° C.) corresponding to Max. Rate of Weight Change: 187 °C
  Weight Loss % (w/w): 22.6 % (w/w)
[2]; [14]
  global / net weight loss after all 4 water sorption/desorption cycles: about 7.5 % (w/w)
  weight change / water uptake between 10% and 90% relative humidity: 2.10 % (w/w)
  weight gain / water uptake as relative humidity is increased from 0% to 10%: 3.76 % (w/w)

## CC(C)(O)c1ccc2c(c1)/C(=C/CCN1CC[C@](O)(c3ccc(Cl)cc3)C(C)(C)C1)c1cccnc1CO2 [Form F, citrate salt of (S)-4-(4-Chloro-phenyl)-1-{3-[7-(1-hydroxy-1-methyl-ethyl)-11H-10-oxa-1-aza-dibenzo[a,d]cyclohepten-5-ylidene]-propyl}-3,3-dimethyl-piperidin-4-ol]
[2]; 25° C.
  XRPD before and after water sorption/desorption cycling: disappears
[3]
  form conversion as the temperature is raised (isothermal XRPD): converts to Form B
  loss of stability (lines unique to the form disappear), isothermal XRPD: greater than 110 °C

## CC(C)(O)c1ccc2c(c1)/C(=C/CCN1CC[C@](O)(c3ccc(Cl)cc3)C(C)(C)C1)c1cccnc1CO2 [Form G, citrate salt of (S)-4-(4-Chloro-phenyl)-1-{3-[7-(1-hydroxy-1-methyl-ethyl)-11H-10-oxa-1-aza-dibenzo[a,d]cyclohepten-5-ylidene]-propyl}-3,3-dimethyl-piperidin-4-ol]
[2]; 25° C.
  XRPD before and after water sorption/desorption cycling: have dissipated
[3]
  form conversion as the temperature is raised (isothermal XRPD): converts to Form B
  loss of stability (lines unique to the form disappear), isothermal XRPD: ≥ 130 °C

## CC(C)(O)c1ccc2c(c1)/C(=C/CCN1CC[C@](O)(c3ccc(Cl)cc3)C(C)(C)C1)c1cccnc1CO2 [Form H, citrate salt of (S)-4-(4-Chloro-phenyl)-1-{3-[7-(1-hydroxy-1-methyl-ethyl)-11H-10-oxa-1-aza-dibenzo[a,d]cyclohepten-5-ylidene]-propyl}-3,3-dimethyl-piperidin-4-ol]
[1]; [15]
  DSC endothermic transition, Tmax: 141 °C
  DSC endothermic transition, interpolated beginning temperature: 131 °C
[4]; heating rate 5° C./min, sample of the single form (Form H formed from Form E sample)
  TGA weight loss of the transition: 20.10 % (w/w)
[4]; [16]
  TGA weight loss transition, interpolated beginning temperature: 127 °C
  TGA weight loss transition, temperature of maximum rate of weight loss: 142 °C
[2]; ambient temperatures
  behaviour when exposed to 10% relative humidity or higher: reversibly transforms into form E

## CC(C)(O)c1ccc2c(c1)/C(=C/CCN1CC[C@](O)(c3ccc(Cl)cc3)C(C)(C)C1)c1cccnc1CO2 [Forms A and D]
[1]; [17]
  DSC endothermic transition 1912 (release of THF), Tmax: 77 °C
  DSC endothermic transition 1912 (release of THF), beginning temperature: about 60 °C
  DSC endothermic transition 1912 (release of THF), enthalpy: 18.1 J/g
[4]; [18]
  TGA second weight loss transition 1812, interpolated beginning temperature: 164 °C
  TGA second weight loss transition 1812, temperature of maximum weight loss rate: 180 °C
[2]; 25° C.
  global / net weight loss after all 4 water sorption/desorption cycles: about 14.3 % (w/w)
